US20230026259A1, “CA2 COMPOSITIONS AND METHODS FOR TUNABLE REGULATION” (Obsidian Therapeutics, Inc., priority 2019, published 2023)

Legend:
NIH3T3 cells [1] = experiment: Destabilization mutant screening of human CA2 linked to GFP, ligand response by FACS (Valdecoxib, Celecoxib, Acetazolamide); format: cell-based
Experimental: To identify destabilizing mutations of human CA2 that are stabilized upon ligand binding to CA2, two rounds of mutant screening were performed, using a lentivirus CA2 mutant library provided by Genscript (China). These methods were used to generate a library of mutant polypeptides using mutagenesis primers and error prone PCR. Lentiviral vectors expressing the template, wild-type human CA2 operably linked to GFP(OT-001986) was also provided by Genscript along with the CA2 mutant library. The library was packaged into lentivirus, transduced into NIH3T3 cells at a multiplicity of infection (MOI) of approximately 0.3 and select stable cell pools were derived by selecting with selection marker puromycin.
To identify cell pools containing destabilizing mutants of CA2 that are stabilizing when CA2 is bound to its corresponding ligand, cells were sorted using FACS. In the initial round, the bottom 15% of population that was GFP negative in the absence of ligand was selected. Cells were expanded and then treated with 10 μM Celecoxib for 24 hours and harvested for cell sorting. The top 11% GFP positive cells which were also responsive to ligand treatment compared to untreated were collected. Celecoxib was removed from the cultures and replaced with DMSO. […] Genomic DNA was isolated and amplified CA2 mutants were reintroduced to the lentiviral vectors where CA2 was operably linked to GFP. The constructs were transduced into NIH3T3 cells with lentivirus vectors for each clone. The cells were treated with 10 μM Valdecoxib or 10 μM Celecoxib for 24 hours and analyzed by FACS. […] In Table 25, the Construct ID (OT-XXXXXX) refers to the construct which includes the referenced CA2 mutant and the Library ID (LibCXXXXXX) refers to the CA2 mutant itself.
The response of NIH3T3 cells to varying doses of Valdecoxib or Celecoxib for 24 hours was measured and analyzed by FACS.
Clones treated with different ligands were compared to examine the behavior of each mutant with the ligands.

NIH3T3 cells [2] = experiment: Immunoblotting of cell lysates for GFP after ligand treatment; format: cell-based; details: NIH3T3 cells, 0.3, 1, 3, 10 or 30 μM Acetazolamide, 24 hours
Experimental: The protein expression in the presence of ligand was measured by immunoblotting the cell lysates for GFP.
The protein expression in the presence of ligand was measured by immunoblotting cell lysates for GFP.

[3] = NIH3T3, 10 μM Celecoxib vs DMSO
[4] = NIH3T3, 10 μM Valdecoxib vs DMSO
[5] = NIH3T3, Celecoxib μM (concentration not given)
[6] = NIH3T3, Valdecoxib μM (concentration not given)

Row | Substance | Median PE (NIH3T3 cells [1]; NIH3T3, 10 μM Celecoxib) | SR (stabilization ratio) (NIH3T3 cells [1]; [3]) | Median PE (NIH3T3 cells [1]; NIH3T3, 10 μM Valdecoxib) | SR (stabilization ratio) (NIH3T3 cells [1]; [4]) | Median PE (NIH3T3 cells [1]; NIH3T3, DMSO) | SR (stabilization ratio) (NIH3T3 cells [1]; NIH3T3, DMSO (reference)) | MFI, comparative analysis (NIH3T3 cells [1]; NIH3T3, Acetazolamide 10 μM) | MFI, comparative analysis (NIH3T3 cells [1]; NIH3T3, Acetazolamide 30 μM) | MFI, comparative analysis, normalized to parental day 1 (NIH3T3 cells [1]; [5]) | MFI, comparative analysis (NIH3T3 cells [1]; NIH3T3, DMSO) | MFI, comparative analysis, normalized to parental day 1 (NIH3T3 cells [1]; [6]) | GFP protein expression by immunoblot, Acetazolamide (NIH3T3 cells [2])
1 | CA2 (aa 2-260 of WT, S73F) [LibC000212] | 30700 | 1.02 | 30700 | 1.02 | 30100 | 1 |  |  |  |  |  | 
2 | CA2 (aa 2-260 of WT, H17D, P30S, G81V, K132R, S151I, A152D, A173G, W191*) [LibC000191] | 173 | 1.08 | 177 | 1.11 | 160 | 1 |  |  |  |  |  | 
3 | CA2 (aa 2-260 of WT, L47R) [LibC000220] | 384 | 1.2 | 408 | 1.31 | 311 | 1 |  |  |  |  |  | 
4 | CA2 (aa 2-260 of WT, I59N, G102R) [LibC000184] |  |  |  |  |  |  | 9295 | 10900 | 4660.217 | 380 | 3478.892 | stabilization of GFP with increasing ligand doses
5 | CA2 (aa 2-260 of WT, G12R) [LibC000211] | 20800 | 1.6 | 19800 | 1.52 | 13000 | 1 |  |  | 16550.54 | 10344.09 | 15754.84 | 
